This test concerns 292921-168-R-J2-PDC spheroids with HUVEC/MSC, viability. The test is described as follows: Anticancer human tumor 292921-168-R-J2-PDC patient-derived pancreatic carcinoma cell line growth inhibition [TAK]. The conditions noted are these: for viability, T/C: stronger effect = lower value. The source says:
Combinatorial screen of targeted agents with TAK-243 and ipatasertib in multi-cell type tumor spheroids
A high-throughput screen of multi-cell type tumor spheroids was designed to identify active combinations of targeted small molecules and TAK-243 or ipatasertib. Complex spheroids include a stromal component modeled by human endothelial cells (HUVEC) and fibroblasts modeled by human mesenchymal stem cells (MSCs). The concentration ranges selected for each drug and investigational agent were based upon clinically achievable concentrations if the clinical Cmax of the agent was known.
Compounds. The drugs and investigational agents: TAK-243 (785004), ipatasertib (767898), everolimus (733504), selumetinib (741078), bortezomib (756655), trametinib (758246), ixazomib (758254), vemurafenib (761431), dabrafenib (764134), sapanisertib (764658), alpelisib (765974), and copanlisib (816437), were obtained from the National Cancer Institute (NCI) Developmental Therapeutics Program Chemical Repository. The FDA-approved anticancer drug set is available from the NCI Developmental Therapeutics Program. […] The stock solutions were prepared in dimethyl sulfoxide (DMSO, Sigma-Aldrich, St. Louis, MO, cat. D2650) at 800-fold the tested concentration and stored at -70 degrees C prior to their use. All drugs and investigational agents were tested over a range starting from a high concentration at or near the clinical Cmax and decreasing in half-log increments. If the clinical Cmax for an agent had not been determined, the highest concentration tested was 10 microM.
NCI60 Cell Culture. NCI60 cell lines were obtained from the NCI Developmental Therapeutics Program Tumor Repository. For each lot of cells, the Repository performed Applied Biosystems AmpFLSTR Identifiler testing with PCR amplification to confirm consistency with the published Identifier STR profile for each cell line. Cells were kept in continuous culture for no more than 20 passages. The optimal seeding densities for each of the cell lines at each time point assessed were determined prior to performing the concentration response studies. Briefly, the NCI60 human tumor lines were grown as monolayers in RPMI 1640 medium supplemented with 10% FBS and 2 mmol/L L-glutamine.
An additional 2 lines were from the NCI60 cell line panel including melanomas, MALME-3M and SK-MEL-2. Pooled donor human umbilical vein endothelial cells (HUVEC, Lonza, cat. CC-2519) and human mesenchymal stem cells (hMSC, Lonza, cat. PT-2501) were purchased from Lonza (Walkersville, MD).
PDMR cell lines were grown in complete medium (DC medium): Dulbecco's modified Eagle's medium (DMEM)/F12 supplemented with 5% fetal bovine serum (FBS), 2 mM L-glutamine, 100 U/mL penicillin and 100 µg/ml streptomycin, 0.4 µg/ml hydrocortisone, 10 ng/ml epidermal growth factor (EGF) recombinant human protein, 24 µg/mL adenine, and 0.1 mg/mL primocin. During culture from frozen stock vials, PDMR cells were cultured in the same medium containing 10 µM Y-27632 (see Table 3). The PDCs were cultured in complete DMEM/F12 media without 10 microM Y-27632 dihydrochloride for at least two passages prior to the screen. The pooled donor HUVEC and hMSC were cultured in endothelial cell growth medium 2 (PromoCell, Heidelberg, Germany, cat. C-22011) and mesenchymal stem cell growth medium 2 (PromoCell, cat. C-28009), respectively. For all experiments, HUVEC and hMSC were used at passages </=5.
For the pre-screen, cell seeding densities were determined from a titration spanning the range from 5,000 to 313 cells per well. The mct-spheroids including 60% malignant cells, 25% HUVEC and 15% MSC dispensed as a mixture into U-bottom Ultra-Low Attachment 384-well plates (Corning, NY)
High-throughput Drug Combination Screening.
Prior to their inoculation into 384-well plates, malignant cells, HUVEC, and hMSC were removed from T flasks using TrypLE express (Thermo Fisher Scientific, cat. 12605036) and harvested by centrifugation for 5 min at 233 x g. […]

For orientation: IC50 means the concentration that inhibits the measured activity by half. One may read the viability, T/C as the result in the treated group divided by that in the control group, in per cent.

Values joined by “and” are separate entries in the source; they are usually repeats but may differ in a detail not shown here. Equal values may be shown once.
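Further: spheroids exposed to drugs for seven days before readout.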

Consider `COC1CC2CCC(C)C(O)(O2)C(=O)C(=O)N2CCCCC2C(=O)OC(C(C)CC2CCC(OCCO)C(OC)C2)CC(=O)C(C)C=C(C)C(O)C(OC)C(=O)C(C)CC(C)C=CC=CC=C1C` (configuration not stated) + CC(C)NCC(C(=O)N1CCN(c2ncnc3c2C(C)CC3O)CC1)c1ccc(Cl)cc1, for which the IC50 was 5.01 nM (curve of first compound, second compound 0.3 µM); 4.77 nM (curve of first compound, second compound 0.949 µM); 1.41 nM (curve of first compound, second compound 3 µM); below 0.316 nM (curve of first compound, second compound 9.49 µM); below 0.316 nM (curve of first compound, second compound 30 µM). The viability, T/C is 64.3% (second compound 0.3 µM, first compound 0.000316 µM); 56.9% (second compound 0.3 µM, first compound 0.001 µM); 49.4% (second compound 0.3 µM, first compound 0.00316 µM); 50.6% (second compound 0.3 µM, first compound 0.01 µM); 45.3% (second compound 0.3 µM, first compound 0.0316 µM); 46.1% (second compound 0.3 µM, first compound 0.1 µM). In addition, the viability, T/C reads like this: (second compound 0.949 µM, first compound 0.000316 µM) 65.7%; (second compound 0.949 µM, first compound 0.001 µM) 59.9%; (second compound 0.949 µM, first compound 0.00316 µM) 50.2%; (second compound 0.949 µM, first compound 0.01 µM) 46.6%; (second compound 0.949 µM, first compound 0.0316 µM) 44.9%; (second compound 0.949 µM, first compound 0.1 µM) 45.2%. For the same compound, the viability, T/C (second compound 3 µM, first compound 0.000316 µM) is 60%; the viability, T/C (second compound 3 µM, first compound 0.001 µM) was 53.3%; the viability, T/C (second compound 3 µM, first compound 0.00316 µM) was 45.1%; the viability, T/C (second compound 3 µM, first compound 0.01 µM) was 42.4%; the viability, T/C (second compound 3 µM, first compound 0.0316 µM) was 43.8%; the viability, T/C (second compound 3 µM, first compound 0.1 µM) was 41.6%. Also, the viability, T/C reads like this: (second compound 9.49 µM, first compound 0.000316 µM) 47.9%; (second compound 9.49 µM, first compound 0.001 µM) 39.8%; (second compound 9.49 µM, first compound 0.00316 µM) 35.7%; (second compound 9.49 µM, first compound 0.01 µM) 33.2%; (second compound 9.49 µM, first compound 0.0316 µM) 32.7%; (second compound 9.49 µM, first compound 0.1 µM) 32.9%. Also, the viability, T/C is, setting by setting: (second compound 30 µM, first compound 0.000316 µM) 33.4%; (second compound 30 µM, first compound 0.001 µM) 30.6%; (second compound 30 µM, first compound 0.00316 µM) 29%; (second compound 30 µM, first compound 0.01 µM) 26.3%; (second compound 30 µM, first compound 0.0316 µM) 26.2%; (second compound 30 µM, first compound 0.1 µM) 24.3%.

As to `CC(C)n1nc(-c2ccc3oc(N)nc3c2)c2c(N)ncnc21`, the viability, T/C is 101% and 103% (compound 0.000316 µM); 87.1% and 91% (compound 0.001 µM); 75.5% and 74.6% (compound 0.00316 µM); 61.5% and 58.3% (compound 0.01 µM); 40.3% and 43% (compound 0.0316 µM); 31.9% and 32.7% (compound 0.1 µM). Also, the IC50 (curve of compound) is 19.3 nM and 18.6 nM.

The values above are taken from PubChem BioAssay AID2060357 (Molecular Pharmacology Branch, DTP, NCI, 2025).
